The subject of experiment [1] is Eucalyptus seedlings (E. globulus). Put plainly: Field trial, height of treated Eucalyptus seedlings (growth effect). The class given is in vivo. As to conditions: for Average height (cm): E. globulus seedlings. The text has this:
(§1) A synergistic effect is always present when the growth effect of the combinations according to the invention exceed the total of the activities of the active compounds when applied individually. The expected activity for a given combination of two active compounds can be calculated as follows (cf. Colby, S.R., “Calculating Synergistic and Antagonistic Responses of Herbicide Combinations”, Weeds 15, (1967), 20-22): If • X is the growth effect when applying one compound selected from the class of agonists and antagonists of the nicotinic acetylcholine receptors at an application rate of m g/ha, • Y is the growth effect when applying fertilizer at an application rate of n g/ha and • E is the efficacy when applying the combination of A and B at an application rate of m and n g/ha, then [formula] The efficacy is calculated in %. 0% is an efficacy which corresponds to that of the control. If the actual growth effect exceeds the calculated value, then the activity of the combination is super additive, i.e. a synergistic effect exists. In this case, the efficacy which was actually observed must be greater than the value for the expected efficacy (E) calculated from the abovementioned formula. The trial was established using a Latin square design (4 treatments with 4 replications each) with 49 ligneous trees per plot for a total of 784 trees in the trial. Trees: Eucalyptus seedlings (E. globulus) The four treatments used were 1) control (nil treatment) 2) fertilizer only 3) insecticide (i.e. imidacloprid) only 4) insecticide (i.e. imidacloprid) plus fertilizer Bonitation of insect infestation and measurement of the height of the treated trees was done 7 months and 12 months after the trial has been started (start of trial: August 2003, bonitations: March 2004 and August 2004) All results are statistically evaluated having a significance level of 5% . Besides the mean value comparison the Fisher's PLSD test has been applied.

For a further experiment, the system named is insect infestation. Put plainly: Field trial, bonitation of insect infestation (defoliation by insect damage) on Eucalyptus seedlings. The class given is in vivo.
Excerpt: as §1

Where [2] appears, read: Bonitation August 2004, 12 months after start of trial.
The mark [3] stands for this setting: Bonitation March 2004, 7 months after start of trial.

Consider `O=[N+]([O-])NC1=NCCN1Cc1ccc(Cl)nc1` [imidacloprid only, Imidacloprid], for which the “Height of tree (% of control)” value in experiment [1] (setting [2]) is on record as 104 % of control; in experiment [1] (setting [3]), 115 % of control. In addition, the figures for the “Average height (cm)” value in experiment [1] (setting [2]) and in experiment [1] (setting [3]) were 125 cm and 86 cm, respectively. For the same compound, the “Average defoliation by insect damage (%)” value in the experiment with insect infestation (setting [2]) was found to be 60%; with insect infestation (setting [3]) it was 18%. Besides, the results for the “Efficacy according to Abbott (%)” value with insect infestation (setting [2]) and in the experiment on insect infestation (setting [3]) were 40% and 71%, respectively.

(Values after patent US20080090728A1, “Method for Improving Plant Growth” (BAYER CROPSCIENCE AG, priority 2004, published 2008).)
